Article PMC5482243 (Investigative Ophthalmology & Visual Science, 2017)
Like-named read-outs stand apart in the source and are kept apart here.

Experiments:
Assay in all cases: β-arrestin recruitment assay
Format in all cases: cell-based
GPR143 (pm-GPR143) [1] = molecular target: T1, GPR143 (pm-GPR143) (Homo sapiens, UniProt P51810, E330A/L223A/L224A/W329A)
GPR143 (pm-GPR143) [2] = molecular target: T1, GPR143 (pm-GPR143); remark: listed apart in the source
GPR143 (wt-GPR143) = GPR143 (wt-GPR143) (Homo sapiens, UniProt P51810)
GPR143 (wt-GPR143), sequence (P51810 whole entry): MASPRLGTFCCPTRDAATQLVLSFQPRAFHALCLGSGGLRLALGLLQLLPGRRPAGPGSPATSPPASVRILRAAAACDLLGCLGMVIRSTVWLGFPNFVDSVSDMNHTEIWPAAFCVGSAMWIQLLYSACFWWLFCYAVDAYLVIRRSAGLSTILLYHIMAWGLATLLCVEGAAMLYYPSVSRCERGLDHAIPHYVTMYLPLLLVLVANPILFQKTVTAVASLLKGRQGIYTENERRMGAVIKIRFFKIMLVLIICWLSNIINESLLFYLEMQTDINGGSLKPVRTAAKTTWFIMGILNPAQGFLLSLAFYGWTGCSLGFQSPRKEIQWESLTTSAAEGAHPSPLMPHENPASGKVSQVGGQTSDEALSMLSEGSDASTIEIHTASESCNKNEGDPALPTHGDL

T1 sequence (P51810 whole entry L223A/L224A/W329A/E330A): as the sequence (P51810 whole entry) above, with L223A, L224A, W329A, E330A counted along it

CCOc1ccc2nc3cc(N)ccc3c(N)c2c1 [ethacridine lactate] was tested, and the EC50 (GPR143 (pm-GPR143) [1]) was 26.1 ± 1.03 µM.

O=C(Nc1ccc([N+](=O)[O-])cc1Cl)c1cc(Cl)ccc1O [niclosamide] was tested, and the EC50 (GPR143 (pm-GPR143) [1]) was 3.4 ± 1.11 µM.

For O=c1[nH]c2ccccc2n1C1CCN(CCCC(c2ccc(F)cc2)c2ccc(F)cc2)CC1 [pimozide], the EC50 (GPR143 (pm-GPR143) [2]) was 2.72 ± 1.17 µM and the EC50 (GPR143 (wt-GPR143)) was 4.62 ± 1.37 µM.
